One data set deals with human D3 receptor (Homo sapiens (Human), UniProt P35462). Description: Radioligand binding ([3H]-spiperone) to cloned receptors expressed in HEK-293 EBNA cells. The settings on record: HEK293 EBNA cell membranes expressing human D3. An outline of the steps: (§1)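 Membranes from transiently transfected HEK293 EBNA cells incubated 1 h at RT with ten compound concentrations (10 μM–0.1 nM). D2/D3: [3H]-spiperone ~0.7/0.5 nM, Tris–NaCl–Mg/Ca buffer pH 7.4; 5-HT2A: [3H]-ketanserin 1.1 nM, Tris–MgCl2–EGTA pH 7.4.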

The target in the next data set is human D2 receptor (Homo sapiens (Human), UniProt P14416). The data set is described as above. The settings on record: HEK293 EBNA cell membranes expressing human D2. In a few lines: as §1
The next data set concerns the target human 5-HT2A receptor (Homo sapiens (Human), UniProt P28223). Description: Radioligand binding ([3H]-ketanserin) to cloned receptors expressed in HEK-293 EBNA cells. The settings on record: HEK293 EBNA cell membranes expressing human 5-HT2A. An outline of the steps:
as §1

In general, Ki refers to a dissociation constant, usually derived from enzyme kinetics or from competition with a known ligand. The melting point is the temperature, or range, at which the solid turns liquid.

Sequence of human 5-HT2A receptor (P28223 whole entry): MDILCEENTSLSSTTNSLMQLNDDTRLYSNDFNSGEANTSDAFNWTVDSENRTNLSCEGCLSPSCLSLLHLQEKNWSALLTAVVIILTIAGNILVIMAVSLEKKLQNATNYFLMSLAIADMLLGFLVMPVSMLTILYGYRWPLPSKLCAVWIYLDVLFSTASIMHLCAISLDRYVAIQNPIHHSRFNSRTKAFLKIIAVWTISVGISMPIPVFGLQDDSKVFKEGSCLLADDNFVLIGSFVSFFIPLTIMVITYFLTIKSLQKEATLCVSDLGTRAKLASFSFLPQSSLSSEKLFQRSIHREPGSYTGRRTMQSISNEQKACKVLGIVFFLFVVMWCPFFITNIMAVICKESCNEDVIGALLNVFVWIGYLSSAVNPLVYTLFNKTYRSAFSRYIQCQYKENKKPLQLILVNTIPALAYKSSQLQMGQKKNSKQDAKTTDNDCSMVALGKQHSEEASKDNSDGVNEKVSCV
Sequence of human D3 receptor (P35462 whole entry): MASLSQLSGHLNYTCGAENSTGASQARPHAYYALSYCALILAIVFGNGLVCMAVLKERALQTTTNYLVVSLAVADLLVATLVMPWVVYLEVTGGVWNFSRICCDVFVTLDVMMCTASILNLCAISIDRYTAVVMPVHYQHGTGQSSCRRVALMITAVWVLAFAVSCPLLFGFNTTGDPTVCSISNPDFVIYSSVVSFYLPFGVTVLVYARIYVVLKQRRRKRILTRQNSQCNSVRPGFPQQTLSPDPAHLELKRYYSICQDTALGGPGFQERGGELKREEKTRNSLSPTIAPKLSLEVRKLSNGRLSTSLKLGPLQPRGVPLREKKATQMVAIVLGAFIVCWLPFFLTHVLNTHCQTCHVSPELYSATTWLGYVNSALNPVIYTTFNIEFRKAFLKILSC
Sequence of human D2 receptor (P14416 whole entry): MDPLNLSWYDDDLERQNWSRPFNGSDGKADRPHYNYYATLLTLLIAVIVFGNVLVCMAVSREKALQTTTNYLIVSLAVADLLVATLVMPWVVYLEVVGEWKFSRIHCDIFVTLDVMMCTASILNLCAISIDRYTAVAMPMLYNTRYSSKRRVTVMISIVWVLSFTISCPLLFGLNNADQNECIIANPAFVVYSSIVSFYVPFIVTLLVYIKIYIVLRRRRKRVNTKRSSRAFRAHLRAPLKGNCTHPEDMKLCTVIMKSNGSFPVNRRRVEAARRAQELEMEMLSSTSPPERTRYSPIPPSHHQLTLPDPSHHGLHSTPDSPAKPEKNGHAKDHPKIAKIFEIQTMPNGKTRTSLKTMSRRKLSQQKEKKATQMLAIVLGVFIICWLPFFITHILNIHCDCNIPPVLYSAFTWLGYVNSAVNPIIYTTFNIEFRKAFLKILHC

For the compound `O=S(=O)(N[C@H]1CC[C@H](CCN2CCC(c3cccc4c3CCO4)CC2)CC1)c1ccccc1` [Example 49, trans-N-(4-{2-[4-(2,3-Dihydro-benzofuran-4-yl)-piperidin-1-yl]-ethyl}-cyclohexyl)-benzenesulfonamide], the melting point was 130 °C. Also, the Ki on human D3 receptor was found to be 5.1 nM. The Ki at human D2 receptor was found to be 138 nM. For the same compound, the Ki at human 5-HT2A receptor was 79.7 nM.

With `O=S(=O)(N[C@H]1CC[C@H](CCN2CCC(c3cccc4c3CCO4)CC2)CC1)c1ccc(F)cc1` [Example 50, trans-N-(4-{2-[4-(2,3-Dihydro-benzofuran-4-yl)-piperidin-1-yl]-ethyl}-cyclohexyl)-4-fluoro-benzenesulfonamide], the melting point is 134 °C. At human D3 receptor, the Ki came to 4.1 nM. In addition, the inhibition constant (Ki) on human D2 receptor came to 105 nM. Also, the Ki on human 5-HT2A receptor was 86.8 nM.

With `CN(C)S(=O)(=O)N[C@H]1CC[C@H](CCN2CCC(c3cccc4c3CCO4)CC2)CC1` [Example 51, N′-(trans-4-{2-[4-(2,3-Dihydro-benzofuran-4-yl)-piperidin-1-yl]-ethyl}-cyclohexyl)-N,N-dimethylsulfamide], the melting point came to 122 °C. For the same compound, the Ki on human D3 receptor worked out at 9.9 nM. In addition, the Ki on human D2 receptor amounted to 251 nM. Besides, on human 5-HT2A receptor, the Ki was determined as 19.5 nM.

Compound `N#CCC(=O)N[C@H]1CC[C@H](CCN2CCC(c3cccc4c3CCO4)CC2)CC1` [Example 55, trans-2-Cyano-N-(4-{2-[4-(2,3-dihydro-benzofuran-4-yl)-piperidin-1-yl]-ethyl}-cyclohexyl)-acetamide] gave a melting point of 194 °C. For the same compound, the Ki on human D3 receptor came to 3.6 nM. In addition, at human D2 receptor, the Ki was 140 nM. Also, the Ki on human 5-HT2A receptor is 38.7 nM.

`O=C(N[C@H]1CC[C@H](CCN2CCC(c3cccc4c3CCO4)CC2)CC1)c1ccc(N2CCCCC2)cc1` [Example 56, trans-N-(4-{2-[4-(2,3-Dihydro-benzofuran-4-yl)-piperidin-1-yl]-ethyl}-cyclohexyl)-4-piperidin-1-yl-benzamide] registered a melting point of 248 °C. In addition, the Ki on human D3 receptor stood at 72.5 nM. For the same compound, the Ki at human D2 receptor was determined as 2270 nM. In addition, on human 5-HT2A receptor, the Ki came out at 137 nM.

Compound `O=C(N[C@H]1CC[C@H](CCN2CCC(c3cccc4c3CCO4)CC2)CC1)c1ccc(C(F)(F)F)cc1` [Example 57, trans-N-(4-{2-[4-(2,3-Dihydro-benzofuran-4-yl)-piperidin-1-yl]-ethyl}-cyclohexyl)-4-trifluoromethyl-benzamide] returned a melting point of 228 °C. Also, at human D3 receptor, the Ki is 66.1 nM. Further, the Ki on human D2 receptor amounted to 1460 nM. Also, the Ki at human 5-HT2A receptor amounted to 135 nM.

Compound `CC(C)(C)C(=O)N[C@H]1CC[C@H](CCN2CCC(c3cccc4c3CCO4)CC2)CC1` [Example 58, trans-N-(4-{2-[4-(2,3-Dihydro-benzofuran-4-yl)-piperidin-1-yl]ethyl}-cyclohexyl)-2,2-dimethyl-propionamide] returned a melting point of 192 °C. Moreover, the Ki at human D3 receptor amounted to 65.1 nM. At human D2 receptor, the Ki was 378 nM. Further, on human 5-HT2A receptor, the inhibition constant Ki came out at 50.6 nM.

As for `CC(C)(C)CC(=O)N[C@H]1CC[C@H](CCN2CCC(c3cccc4c3CCO4)CC2)CC1` [Example 59, trans-N-(4-{2-[4-(2,3-Dihydro-benzofuran-4-yl)-piperidin-1-yl]ethyl}-cyclohexyl)-3,3-dimethyl-butyramide], the melting point was found to be 193 °C. The Ki on human D3 receptor was 6 nM. The inhibition constant (Ki) on human D2 receptor was found to be 394 nM. Moreover, on human 5-HT2A receptor, the Ki worked out at 54.1 nM.

As to `O=C(CC1CCC1)N[C@H]1CC[C@H](CCN2CCC(c3cccc4c3CCO4)CC2)CC1` [Example 60, trans-2-Cyclobutyl-N-(4-{2-[4-(2,3-dihydro-benzofuran-4-yl)-piperidin-1-yl]-ethyl}-cyclohexyl)-acetamide], the melting point turned out to be 196 °C. Besides, the Ki at human D3 receptor is 6.1 nM. In addition, the Ki on human D2 receptor turned out to be 301 nM. Also, the Ki on human 5-HT2A receptor was determined as 44.4 nM.

Consider `O=C(N[C@H]1CC[C@H](CCN2CCC(c3cccc4c3CCO4)CC2)CC1)C1CC1(F)F` (stereo partly drawn) [Example 61, 2,2-Difluoro-cyclopropanecarboxylic acid trans-(4-{2-[4-(2,3-dihydro-benzofuran-4-yl)-piperidin-1-yl]-ethyl}-cyclohexyl)-amide], for which the melting point is 199 °C. In addition, at human D3 receptor, the inhibition constant Ki came out at 9.6 nM. Besides, on human D2 receptor, the Ki turned out to be 236 nM. The Ki on human 5-HT2A receptor was found to be 51.9 nM.

`CN(C)C(=O)CCC(=O)N[C@H]1CC[C@H](CCN2CCC(c3cccc4c3CCO4)CC2)CC1` [Example 63, trans-N-(4-{2-[4-(2,3-Dihydro-benzofuran-4-yl)-piperidin-1-yl]ethyl}-cyclohexyl)-N′,N′-dimethyl-succinamide] had a melting point of 205 °C. Moreover, the inhibition constant Ki at human D3 receptor stood at 15.5 nM. Also, the Ki on human D2 receptor was 1060 nM. In addition, the inhibition constant Ki on human 5-HT2A receptor worked out at 89.6 nM.

The compound `CC(=O)N[C@H]1CC[C@H](CCN2CCC(c3ccc(F)c4occc34)CC2)CC1` [Example 64, trans-N-(4-{2-[4-(7-Fluoro-benzofuran-4-yl)-piperidin-1-yl]-ethyl}-cyclohexyl)-acetamide] gave a melting point of 203.5 °C. Also, at human D3 receptor, the Ki was determined as 9.72 nM. Moreover, the Ki at human D2 receptor is 404 nM. Besides, the inhibition constant Ki at human 5-HT2A receptor amounted to 33.3 nM.

On to `O=C(N[C@H]1CC[C@H](CCN2CCC(c3ccc(F)c4occc34)CC2)CC1)C1CCOCC1` [Example 65, Tetrahydro-pyran-4-carboxylic acid trans-(4-{2-[4-(7-fluoro-benzofuran-4-yl)-piperidin-1-yl]-ethyl}-cyclohexyl)-amide], for which the melting point was determined as 208 °C. The Ki on human D3 receptor amounted to 34 nM. In addition, on human D2 receptor, the Ki amounted to 361 nM. Moreover, the Ki at human 5-HT2A receptor stood at 11.6 nM.

As to `O=C(CC1CCOCC1)N[C@H]1CC[C@H](CCN2CCC(c3ccc(F)c4occc34)CC2)CC1` [Example 66, trans-N-(4-{2-[4-(7-Fluoro-benzofuran-4-yl)-piperidin-1-yl]-ethyl}-cyclohexyl)-2-(tetrahydro-pyran-4-yl)-acetamide], the melting point came out at 187.5 °C. Also, the Ki on human D3 receptor is 20.1 nM. The Ki on human D2 receptor was determined as 616 nM. For the same compound, the Ki at human 5-HT2A receptor was 30.9 nM.

Regarding `COCCC(=O)N[C@H]1CC[C@H](CCN2CCC(c3ccc(F)c4occc34)CC2)CC1` [Example 67, trans-N-(4-{2-[4-(7-Fluoro-benzofuran-4-yl)-piperidin-1-yl]-ethyl}-cyclohexyl)-3-methoxy-propionamide], the melting point was determined as 177 °C. Further, the Ki at human D3 receptor was found to be 9.28 nM. Besides, the Ki at human D2 receptor amounted to 613 nM. The inhibition constant (Ki) on human 5-HT2A receptor came out at 31 nM.

Compound `O=C(N[C@H]1CC[C@H](CCN2CCC(c3cccc4c3CCO4)CC2)CC1)c1ccc(-n2cccn2)cc1` [Example 68, trans-N-(4-{2-[4-(2,3-Dihydro-benzofuran-4-yl)-piperidin-1-yl]-ethyl}-cyclohexyl)-4-pyrazol-1-yl-benzamide] registered a melting point of 258.5 °C. The Ki on human D3 receptor stood at 8.65 nM. The inhibition constant Ki at human D2 receptor came to 1700 nM. For the same compound, the Ki at human 5-HT2A receptor came to 27.4 nM.

Take `Cc1nc(-c2ccc(C(=O)N[C@H]3CC[C@H](CCN4CCC(c5cccc6c5CCO6)CC4)CC3)cc2)no1` [Example 69, trans-N-(4-{2-[4-(2,3-Dihydro-benzofuran-4-yl)-piperidin-1-yl]-ethyl}-cyclohexyl)-4-(5-methyl-[1,2,4]oxadiazol-3-yl)-benzamide]: the melting point was 256.5 °C. At human D3 receptor, the Ki is 14.9 nM. Moreover, the Ki at human D2 receptor is 3730 nM. For the same compound, the inhibition constant (Ki) on human 5-HT2A receptor was 54.5 nM.

With `CS(=O)(=O)c1ccc(C(=O)N[C@H]2CC[C@H](CCN3CCC(c4cccc5c4CCO5)CC3)CC2)s1` [Example 70, 5-Methanesulfonyl-thiophene-2-carboxylic acid trans-(4-{2-[4-(2,3-dihydro-benzofuran-4-yl)-piperidin-1-yl]-ethyl}-cyclohexyl)-amide], the melting point was found to be 255 °C. The Ki at human D3 receptor was found to be 6.63 nM. The Ki at human D2 receptor amounted to 195 nM. Besides, at human 5-HT2A receptor, the Ki worked out at 31.4 nM.

`CC(C)(C)c1ccc(C(=O)N[C@H]2CC[C@H](CCN3CCC(c4cccc5c4CCO5)CC3)CC2)cc1` [Example 71, trans-4-tert-Butyl-N-(4-{2-[4-(2,3-dihydro-benzofuran-4-yl)-piperidin-1-yl]-ethyl}-cyclohexyl)-benzamide] displayed a melting point of 208 °C. On human D3 receptor, the Ki worked out at 13.6 nM. The “D2 Ki” value on human D2 receptor is “inactive”. Further, the inhibitory constant (Ki) on human 5-HT2A receptor was determined as 28.6 nM.

Regarding `CC(C)(O)CC(=O)N[C@H]1CC[C@H](CCN2CCC(c3cccc4c3CCO4)CC2)CC1` [Example 72, trans-N-(4-{2-[4-(2,3-Dihydro-benzofuran-4-yl)-piperidin-1-yl]-ethyl}-cyclohexyl)-3-hydroxy-3-methyl-butyramide], the melting point turned out to be 168 °C. At human D3 receptor, the Ki came out at 6.33 nM. For the same compound, on human D2 receptor, the Ki was found to be 176 nM. For the same compound, the Ki on human 5-HT2A receptor was determined as 56.1 nM.

`CCCC(=O)N[C@H]1CC[C@H](CCN2CCC(c3cccc4c3CCO4)CC2)CC1` [Example 73, trans-N-(4-{2-[4-(2,3-Dihydro-benzofuran-4-yl)-piperidin-1-yl]-ethyl}-cyclohexyl)-butyramide] displayed a melting point of 196 °C. Also, on human D3 receptor, the Ki is 5.16 nM. Also, the Ki on human D2 receptor stood at 197 nM. Moreover, the inhibition constant (Ki) at human 5-HT2A receptor was 93.4 nM.

Turning to `O=C(CCC(F)(F)F)N[C@H]1CC[C@H](CCN2CCC(c3cccc4c3CCO4)CC2)CC1` [Example 74, trans-N-(4-{2-[4-(2,3-Dihydro-benzofuran-4-yl)-piperidin-1-yl]ethyl}-cyclohexyl)-4,4,4-trifluoro-butyramide], the melting point was found to be 200 °C. At human D3 receptor, the Ki stood at 7.64 nM. In addition, on human D2 receptor, the Ki was determined as 253 nM. The Ki on human 5-HT2A receptor stood at 119 nM.
